The source of these data is publication PMC6386767, “Characterization of recombinant fructose-1,6-bisphosphatase gene mutations: evidence of inhibition/activation of FBPase protein by gene mutation” (Bioscience Reports, 2019).

Numbering of substitutions follows the chain as printed. pIC50, pKi: −log10 of the molar value.

For one assay, the target named is T1, pig kidney FBPase Y164A (Sus scrofa, UniProt P00636, Y165A).
T1 construct: His6 (C); made in house; host or cells: Escherichia coli BL21 (DE3)
T1 sequence (P00636 1-338 Y165A): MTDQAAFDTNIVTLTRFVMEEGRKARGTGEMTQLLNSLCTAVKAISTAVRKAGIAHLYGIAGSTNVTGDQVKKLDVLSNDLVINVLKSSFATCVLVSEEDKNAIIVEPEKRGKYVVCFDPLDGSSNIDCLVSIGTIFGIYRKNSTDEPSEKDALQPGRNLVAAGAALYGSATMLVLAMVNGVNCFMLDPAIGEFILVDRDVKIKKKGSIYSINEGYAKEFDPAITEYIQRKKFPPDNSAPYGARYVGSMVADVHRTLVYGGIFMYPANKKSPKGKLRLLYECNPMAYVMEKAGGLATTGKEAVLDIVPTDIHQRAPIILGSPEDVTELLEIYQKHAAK
Put plainly: Malachite Green kinetic assay, Y164A mutant. The note with it: enzyme Y164A; for pIC50: FBP substrate 10 to 50 µM. The class given is biochemical. As to the method: (§1) For the kinetic assay, a standard curve was obtained from an ammonium molybdate Malachite Green inorganic phosphate assay (OD660 nm). The purified FBPase protein was dialyzed ×3 in 50 mM Tris buffer at pH 7.5 at 4°C. For enzyme concentration, absorbency values were recorded for all five mutant proteins using spectrophotometer readings at OD280 nm. To quantitate enzyme concentration, the enzymes were calculated based on the quantity of micrograms per microliter (µg/µl) present. Final concentration of WT and mutant enzymes was between 2.5 and 5.0 µg/µl. Using a colorimetric assay as described below, specific activity (SA) was determined. At last, all kinetic and binding assays described below were performed in 50 mM Tris pH 7.5.
(§2) Kinetic assays were performed for WT and mutant enzymes to identify functional differences between the WT enzyme and the mutants. […] Readings recorded at OD660 nm for each enzyme were applied to the standard curve equation. Micromoles of inorganic phosphate were calculated to determine the SA of mutant enzymes.
(§3) For each clone, the kinetic assay was performed in duplicates of triplicates. Malachite Geen was used to detect inorganic phosphate. Two separate clones were processed independently of the same mutant. All kinetic data were fit to symmetric sigmoidal curve using Origin software based on methods previously described [[27–29]]. More specifically, for kinetic parameters established via curve fitting (shown in Tables 1–3; and in Figure 5A,B), the equation y = d + (a − d)/1 + (x/c)^b was used where ‘x’ is represented by apparent Michelis constant (Km) when y = Vmax. […] P-values were significant at <0.001 and represent a comparison with the WT enzyme.

The next assay concerns the target T2, pig kidney FBPase M177A (Sus scrofa, UniProt P00636, M178A).
T2 construct: His6 (C); made in house; host or cells: Escherichia coli BL21 (DE3)
T2 sequence (P00636 1-338 M178A): T1 sequence (P00636 1-338 Y165A) with A165Y, M178A
Put plainly: Malachite Green kinetic assay, M177A mutant. The class given is biochemical. Particulars: for pIC50: FBP substrate 10 to 50 µM. As for the experimental part:
as §1, §2, §3

Assay [1] concerns the target T3, pig kidney FBPase M248D (Sus scrofa, UniProt P00636, M249D).
T3 construct: His6 (C); made in house; host or cells: Escherichia coli BL21 (DE3)
T3 sequence (P00636 1-338 M249D): T1 sequence (P00636 1-338 Y165A) with A165Y, M249D
Nature of the assay: Malachite Green kinetic assay, M248D mutant. It is filed as biochemical. The note with it: for pIC50: FBP substrate 10 to 50 µM. As to the method: as §1, §2, §3

Another assay concerns the target T4, pig kidney FBPase WT (Sus scrofa, UniProt P00636).
T4 construct: His6 (C); made in house; host or cells: Escherichia coli BL21 (DE3)
T4 sequence (P00636 1-338): T1 sequence (P00636 1-338 Y165A) with A165Y
Nature of the assay: Differential scanning fluorimetry, WT enzyme. The note with it: enzyme WT. The class given is binding. As for the experimental part:
(§4) Differential scanning fluorimetry (DSF) assays were designed and implemented to run on WT and each mutant for the purpose of determining relative stabilities by melting point, and to detect structural changes in the enzymes upon ligand binding. Thermal shift assays were performed with a Light Cycler 96 System Real-Time PCR machine (Roche) using Sypro-Orange dye (Invitrogen) and thermal ramping (0.25°C per min between 20 and 85°C). […] Data were processed using the Boltzmann equation to generate sigmoidal denaturation curves, and average Tm/ΔTm values were calculated as previously described using GraphPad Prism software package.
(In general: Differential scanning fluorimetry follows unfolding on heating by fluorescence.)

The target in a further assay is T5, pig kidney FBPase L56A (Sus scrofa, UniProt P00636, L57A).
T5 construct: His6 (C); made in house; host or cells: Escherichia coli BL21 (DE3)
T5 sequence (P00636 1-338 L57A): T1 sequence (P00636 1-338 Y165A) with L57A, A165Y
Nature of the assay: Differential scanning fluorimetry, L56A mutant. The class given is binding. The note with it: enzyme L56A. As to the method:
as §4

Assay [2] addresses T3, pig kidney FBPase M248D. Nature of the assay: Differential scanning fluorimetry, M248D mutant. It is filed as binding. The note with it: enzyme M248D. As to the method:
as §4

The term pIC50 denotes −log10 of the IC50, conventionally taken in molar units. Read a low pIC50 as a high IC50. Take `Nc1ncnc2c1ncn2[C@@H]1O[C@H](COP(=O)(O)O)[C@@H](O)[C@H]1O` [AMP]: the “AMP Hill coefficient” value at pig kidney FBPase Y164A is 2.8 (± 0.2); on pig kidney FBPase M177A (enzyme M177A_1), 2.6 (± 0.2); at pig kidney FBPase M177A (enzyme M177A_2 (second clone)), 2.8 (± 0.1); at pig kidney FBPase M248D [1] (enzyme M248D), 2.5 (± 0.2). For the same compound, the pIC50 was 5.60 against pig kidney FBPase Y164A, 5.46 on pig kidney FBPase M177A (enzyme M177A_1), 5.41 against pig kidney FBPase M177A (enzyme M177A_2) and 5.14 against pig kidney FBPase M248D [1] (enzyme M248D). Besides, the “melting point of enzyme with AMP (100 µM)” value on pig kidney FBPase WT (AMP 100 µM) is 59.0 (± 1.75) °C; at pig kidney FBPase L56A (AMP 100 µM) it was 57.0 (± 2.75) °C; on pig kidney FBPase M248D [2] (AMP 100 µM) it was 59.0 (± 2.50) °C.
Broadly, the pKi is the negative decadic logarithm of the Ki, by convention in mol/L. A low value points to a high Ki. Turning to `O=P(O)(O)OC[C@H]1O[C@@](CO)(OP(=O)(O)O)[C@@H](O)[C@@H]1O` [F2,6-BP, fructose-2,6-bisphosphate], the negative logarithm of the Ki (pKi) was 6.82 on pig kidney FBPase Y164A, 6.77 at pig kidney FBPase M177A (enzyme M177A) and 5.82 at pig kidney FBPase M248D [1] (enzyme M248D). Moreover, the pIC50 was 6.02 at pig kidney FBPase Y164A, 6.12 at pig kidney FBPase M177A (enzyme M177A_1), 6.21 on pig kidney FBPase M177A (enzyme M177A_2) and 4.98 at pig kidney FBPase M248D [1] (enzyme M248D).
One may read the Hill coefficient as a measure of the steepness of the concentration-response curve. As to `[Mg+2]` [Mg^2+, magnesium], the Ka is recorded as 0.50 (± 0.15) mM on pig kidney FBPase Y164A (association (binding) constant from saturation curve); 0.49 (± 0.18) mM on pig kidney FBPase M177A (enzyme M177A, association (binding) constant from saturation curve); 0.08 (± 0.02) mM on pig kidney FBPase M248D [1] (enzyme M248D, association (binding) constant from saturation curve). Also, the Hill coefficient on pig kidney FBPase Y164A (for magnesium) is 2.15 (± 0.12); at pig kidney FBPase M177A (enzyme M177A, for magnesium), 2.05 (± 0.12); on pig kidney FBPase M248D [1] (enzyme M248D, for magnesium), 2.20 (± 0.17). On pig kidney FBPase M248D [1] (enzyme M248D vs WT), the “decrease in Ka for magnesium binding” value was determined as 6.25. The “melting point of enzyme with Mg^2+ ([…])” value at pig kidney FBPase WT (Mg^2+ […]) is 50.0 (± 1.25) °C; on pig kidney FBPase L56A (Mg^2+ […]) it was 56.0 (± 2.50) °C; at pig kidney FBPase M248D [2] (Mg^2+ […]) it was 65.0 (± 1.75) °C.
